Source: the supplement of paper PMC4932681

What was measured:
ZR-75-1 Tam1 [1] = assay: drug sensitivity score (DSS) (DSS (dimensionless)); higher = more sensitive; extreme values may be limits of the assay; conditions: 4-OH-tamoxifen in medium 1 µM; 72 h
Experimental: (§1)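 FIMM FO2B library drugs were tested at 5 concentrations (10,000-fold range) for 72 h, with CellTiter-Glo viability normalised to DMSO and benzethonium chloride controls. The Drug Sensitivity Score (DSS) is computed from the fitted logistic dose-response curve (area-based; 0 = inactive). Resistant lines and the 'in 1µM tamoxifen' arms were tested in 1 µM 4-OH-tamoxifen.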

ZR-75-1 [2] = assay: as above; conditions: 72 h
Experimental: as §1

T-47D Tam2 = assay: as above; conditions: 4-OH-tamoxifen in medium 1 µM; 72 h
Experimental: as §1

MCF-7 [3] = assay: as above; conditions: 72 h
Experimental: as §1

BT-474 Tam2 [4] = assay: as above; conditions: 4-OH-tamoxifen in medium 1 µM; 72 h
Experimental: as §1

BT-474 Tam1 [5] = assay: as above; conditions: 4-OH-tamoxifen in medium 1 µM; 72 h
Experimental: as §1

T-47D [6] = assay: as above; conditions: 72 h
Experimental: as §1

MCF-7 Tam1 [7] = assay: as above; conditions: 4-OH-tamoxifen in medium 1 µM; 72 h
Experimental: as §1

ZR-75-1 Tam2 [8] = assay: as above; conditions: 4-OH-tamoxifen in medium 1 µM; 72 h
Experimental: as §1

T-47D Tam1 [9] = assay: as above; conditions: 4-OH-tamoxifen in medium 1 µM; 72 h
Experimental: as §1

BT-474 [10] = assay: as above; conditions: 72 h
Experimental: as §1

MCF-7 [11] = assay: relative IC50 (midpoint of fitted logistic curve, plateau may be below 50% inhibition; CellTiter-Glo viability); higher = less potent; conditions: 72 h
Experimental: (§2)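 FIMM FO2B library drugs were plated at 5 concentrations spanning a 10,000-fold range in 384-well plates. Cells were incubated for 72 h at 37 °C and viability was read by CellTiter-Glo, normalised to DMSO (0% inhibition) and 100 µM benzethonium chloride (100% inhibition). IC50 values come from logistic dose-response fits (Breeze pipeline). Tamoxifen-resistant lines and the 'in 1µM tamoxifen' parental arms were tested in medium with 1 µM 4-OH-tamoxifen.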

BT-474 Tam2 [12] = assay: as above; conditions: 4-OH-tamoxifen in medium 1 µM; 72 h
Experimental: as §2

BT-474 Tam1 [13] = assay: as above; conditions: 4-OH-tamoxifen in medium 1 µM; 72 h
Experimental: as §2

ZR-75-1 Tam2 [14] = assay: as above; conditions: 4-OH-tamoxifen in medium 1 µM; 72 h
Experimental: as §2

T-47D Tam1 [15] = assay: as above; conditions: 4-OH-tamoxifen in medium 1 µM; 72 h
Experimental: as §2

BT-474 [16] = assay: as above; conditions: 72 h
Experimental: as §2

ZR-75-1 [17] = assay: as above; conditions: 72 h
Experimental: as §2

T-47D [18] = assay: as above; conditions: 72 h
Experimental: as §2

MCF-7 Tam1 [19] = assay: as above; conditions: 4-OH-tamoxifen in medium 1 µM; 72 h
Experimental: as §2

ZR-75-1 Tam1 [20] = assay: as above; conditions: 4-OH-tamoxifen in medium 1 µM; 72 h
Experimental: as §2

| SMILES | drug sensitivity score (ZR-75-1 Tam1 [1]) | drug sensitivity score (ZR-75-1 [2]; 4-OH-tamoxifen in medium 0 µM) | drug sensitivity score (ZR-75-1 [2]; 4-OH-tamoxifen in medium 1 µM) | drug sensitivity score (T-47D Tam2) | drug sensitivity score (MCF-7 [3]; 4-OH-tamoxifen in medium 0 µM) | drug sensitivity score (MCF-7 [3]; 4-OH-tamoxifen in medium 1 µM) | drug sensitivity score (BT-474 Tam2 [4]) | drug sensitivity score (BT-474 Tam1 [5]) | drug sensitivity score (T-47D [6]; 4-OH-tamoxifen in medium 0 µM) | drug sensitivity score (T-47D [6]; 4-OH-tamoxifen in medium 1 µM) | drug sensitivity score (MCF-7 Tam1 [7]) | drug sensitivity score (ZR-75-1 Tam2 [8]) | drug sensitivity score (T-47D Tam1 [9]) | drug sensitivity score (BT-474 [10]; 4-OH-tamoxifen in medium 0 µM) | drug sensitivity score (BT-474 [10]; 4-OH-tamoxifen in medium 1 µM) | relative IC50 (MCF-7 [11]; 4-OH-tamoxifen in medium 0 µM) | relative IC50 (MCF-7 [11]; 4-OH-tamoxifen in medium 1 µM) | relative IC50 (BT-474 Tam2 [12]) | relative IC50 (BT-474 Tam1 [13]) | relative IC50 (ZR-75-1 Tam2 [14]) | relative IC50 (T-47D Tam1 [15]) | relative IC50 (BT-474 [16]; 4-OH-tamoxifen in medium 0 µM) | relative IC50 (BT-474 [16]; 4-OH-tamoxifen in medium 1 µM) | relative IC50 (ZR-75-1 [17]; 4-OH-tamoxifen in medium 0 µM) | relative IC50 (T-47D [18]; 4-OH-tamoxifen in medium 0 µM) | relative IC50 (MCF-7 Tam1 [19]) | relative IC50 (ZR-75-1 [17]; 4-OH-tamoxifen in medium 1 µM) | relative IC50 (T-47D [18]; 4-OH-tamoxifen in medium 1 µM) | relative IC50 (ZR-75-1 Tam1 [20]) |
| --- | --- | --- | --- | --- | --- | --- | --- | --- | --- | --- | --- | --- | --- | --- | --- | --- | --- | --- | --- | --- | --- | --- | --- | --- | --- | --- | --- | --- | --- |
| CNC(=O)c1cc(Oc2ccc(NC(=O)Nc3ccc(Cl)c(C(F)(F)F)c3)c(F)c2)ccn1 [Regorafenib (BAY 73-4506)] | 0.695 | 0.232 | 0.299 | 0.22 | 2.49 | 1.46 | 5.3 | 4.57 | 1.1 | 0.365 | 0 | 2.33 | 9.09 | 1.48 | 3.22 | 3540 nM | 3340 nM | 2430 nM | 3610 nM | 1940 nM | 370 nM | 3830 nM | 3940 nM |  |  |  |  |  |  |
| CC[C@@H]1C(=O)N(C)c2cnc(Nc3ccc(C(=O)N[C@H]4CC[C@H](N5CCN(CC6CC6)CC5)CC4)cc3OC)nc2N1C(C)C [Volasertib (BI 6727)] | 1.07 | 0 | 0.706 | 2.13 | 2.8 | 7 | 0 | 0.654 | 1.16 | 2.85 | 0 | 0.29 | 2.19 | 1.47 | 7.11 |  | 12.5 nM | > 1000 nM |  |  |  |  |  | > 1000 nM | 361 nM | > 1000 nM |  |  |  |
| Nc1ncn([C@@H]2O[C@H](CO)[C@@H](O)[C@H]2O)c(=O)n1 [Azacitidine] | 0.0216 | 0.0144 | 0 | 0.867 | 1.55 | 0 | 0.198 | 0 | 0.134 | 0 | 0 | 0 | 0.8 | 0.0007 | 0.194 | 2960 nM | > 10000 nM |  | > 10000 nM | > 10000 nM |  |  |  |  |  | > 10000 nM | > 10000 nM | > 10000 nM |  |
| O=C1NC(=O)[C@@H](c2cn3c4c(cccc24)CCC3)[C@@H]1c1c[nH]c2ccccc12 [Tivatinib (ARQ 197)] | 0 | 0.524 | 0 | 0.839 | 3.81 | 0.0182 | 0 | 0.142 | 1.88 | 0 | 0 | 0 | 0.827 | 1.2 | 3.08 |  |  |  |  | > 1000 nM |  | 401 nM | 223 nM |  | 364 nM | > 1000 nM |  |  | > 1000 nM |
